Assay results published in ChEMBL document CHEMBL3217520, “Histamine H3 receptor ligands with a 3-cyclobutoxy motif: a novel and versatile constraint of the classical 3-propoxy linker” (Medchemcomm, 2010).

Legend:
Histamine H3 receptor [1] = target: T1, Histamine H3 receptor (Homo sapiens, UniProt Q9Y5N1); assay: Displacement of [3H]-Nalpha-methylhistamine from human histamine H3 receptor expressed in CHO cells by liquid scintillation counting; format: cell-based
Histamine H3 receptor [2] = target: T1, Histamine H3 receptor; assay: Inverse agonist activity at human histamine H3 receptor expressed in CHO cells assessed as inhibition of [35S]-GTPgammaS binding by liquid scintillation counting; format: functional, cell-based

T1 sequence (Q9Y5N1 whole entry): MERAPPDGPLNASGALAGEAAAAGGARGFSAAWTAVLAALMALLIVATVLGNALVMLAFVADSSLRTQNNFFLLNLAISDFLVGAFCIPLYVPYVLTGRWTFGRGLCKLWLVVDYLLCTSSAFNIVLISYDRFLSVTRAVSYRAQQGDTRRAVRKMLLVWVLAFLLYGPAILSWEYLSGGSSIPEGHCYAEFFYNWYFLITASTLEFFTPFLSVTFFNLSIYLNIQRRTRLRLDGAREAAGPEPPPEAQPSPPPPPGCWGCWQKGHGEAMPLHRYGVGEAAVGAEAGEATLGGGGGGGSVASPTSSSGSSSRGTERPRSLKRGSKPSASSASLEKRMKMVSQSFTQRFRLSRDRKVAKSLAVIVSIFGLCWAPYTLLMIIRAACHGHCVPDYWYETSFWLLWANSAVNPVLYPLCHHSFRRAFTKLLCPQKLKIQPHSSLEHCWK

SMILES	Ki (Histamine H3 receptor [1]) [nM]	EC50 (Histamine H3 receptor [2]) [nM]
c1cc(C2=NC3(CCCCC3)CO2)ccc1O[C@H]1C[C@H](N2CCCCC2)C1	2	2
CC1(C)COC(c2ccc(O[C@H]3C[C@H](N4CCCCC4)C3)cc2)=N1	7.94	0.631
CC1(C)COC(c2ccc(OCCCN3CCCCC3)cc2)=N1	158	15.8
c1cc(C2=NC3(CCCCC3)CO2)ccc1O[C@H]1C[C@@H](N2CCCCC2)C1	251	79.4
c1cc(C2=NC3(CCCCC3)CO2)ccc1OCCCN1CCCCC1	79.4	7.94
c1cc(-c2nc(CN3CCCCC3)co2)ccc1O[C@H]1C[C@H](N2CCCCC2)C1	1.26	3.16
COC(=O)c1oc(-c2ccc(O[C@H]3C[C@H](N4CCCCC4)C3)cc2)nc1C	2	1.58
c1cc(-c2nc(CN3CCCCC3)co2)ccc1OCCCN1CCCCC1	6.31	1.58
